Like-named read-outs stand apart in the source and are kept apart here.
Target: T1, SUMO-2 (Homo sapiens, UniProt P55854)
T1 construct: gene SUMO3; recombinant, untagged as far as told, pET11, E. coli (NMR, 15N-labelled); for titrations single Cys labelled with MFM probe
Test: fluorescence titration of MFM-labelled protein with SUVs, global fit
Assay type: binding

[1] = SUVs POPC:POPS:PI 85:10:5, too weak to be determined, bound set by POPS, acyl chains not given, MFM-labelled protein, 25 mM Na-HEPES, 100 mM KCl, pH 7.26, room temperature

T1 sequence (P55854 1-92): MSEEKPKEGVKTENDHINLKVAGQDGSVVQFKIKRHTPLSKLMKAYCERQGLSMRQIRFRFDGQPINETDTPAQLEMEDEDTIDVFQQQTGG

Row | Compound | Kd [1] [µM] | further results
1 | PI(5)P | > 7 | 
2 | PI(3)P |  | Kd (lipid in SUVs POPC:POPS:PI 85:10:5, per-lipid Kd from global fit, includes binding stoichiometry, acyl chains not given, MFM-labelled protein, 25 mM Na-HEPES, 100 mM KCl, pH 7.26, room temperature): ~4 µM
3 | CCCCCCCC/C=C\CCCCCCCC(=O)O[C@H](COC(=O)CCCCCCCCCCCCCCC)COP(=O)([O-])OCC[N+](C)(C)C [POPC, 1-palmitoyl,2-oleoyl-sn-glycero-3-phosphocholine] |  | Kd: 180 ± 42 µM

More lines, main results first:

Row | Kd [1] [µM] | Compound | further results
4 | > 7 | PI(4,5)P2 | 
5 | > 7 | PI(3,5)P2 | 
